Experimental data published in patent US12544347B2, “Anti-cancer combination and a method of therapy using the combination” (NATIONAL CENTRE FOR CELL SCIENCE, priority 2018, dated 2026).
Structures can show the parent of a compound that is named as a salt.

Experiments:
Format in all cases: cell-based
[1] = system: prostate apoptosis response (Par)-4; assay: Western blotting of intracellular Par-4 in LN-229 cells; conditions: LN-229 cell lysates; TAM 12 μg/ml, VPA 2 mM, alone or combined; 24 hr
Procedure: FIG. 5 depicts the effect of tamoxifen (12 μg/ml) or valproic acid (2 mM) alone or combination of tamoxifen and valproic acid on Par-4 expression in LN-229 cells for 24 hr. GAPDH was used as loading control and control group (C) represents untreated cells. LN-229 cells were seeded in 6 well plate (0.3 million cells/well) and treated with TAM (12 μg/ml) and VPA (2 mM) either individually or in combination for 24 hr. Cell lysates were assessed for expression of intracellular prostate apoptosis response (Par)-4. Western blotting was done using 10% gels and the proteins were identified using specific antibodies followed by probing with luminol-based Enhanced Chemiluminescent (ECL) western blotting substrate.

LN-18 cells = assay: MTT assay, cell viability in LN-18 cells (monolayer or multicellular spheroids); conditions: 24 hr
Procedure: (§1) FIG. 1 depicts cell viability assessed by MTT assay in GBM cell lines-LN-18 and LN-229 using tamoxifen (TAM) at concentration of 5 μg/ml, 10 μg/ml and 15 μg/ml; individually and in combination with Valproic Acid (VPA) (2 mM) wherein the cells were cultured as monolayer (ML) or Multicellular Spheroids (MCS). Unt-open bar-represents untreated cells and hatched bar—[…] (2 mM). Further, the open bars (in 5, 10 15) depict TAM alone and the hatched bars depict TAM in combination with VPA. FIG. 1 also depicts the P values (represented as *) significant for differences between TAM alone versus TAM+VPA. The images are LN-18 cells grown as 2D cultures—ML and 3D-MCS.
FIG. 3 depicts the effect of Valpromide (VPM), an analogue of VPA causing sensitization of tamoxifen (TAM) which induced cell death in LN-18 cells cultured as monolayer (ML). […] The P values (represented as *) are significant for differences between TAM alone versus TAM+VPA/VPM.
MTT assay was employed for assessing the combined action of tamoxifen (TAM) and VPA. LN-18 cells and LN-229 were seeded in 96 well plate (5000 cells/100 ul/well) in complete medium and cultured for 24 hr in two culture models-monolayer and 3D culture. Cells were treated with tamoxifen (TAM) at 3 concentrations-5 μg/ml, 10 μg/ml and 15 μg/ml either individually or in combination with Valproic Acid (VPA) (2 mM) for 24 hr. MTT was added and after 4 hr the crystals were solubilized using DMSO. Absorbance was recorded at 490 nm (test filter) and 570 nm (reference filter). The % cell viability in treated cells was calculated considering the readings in untreated cells as 100%. The results are presented at FIG. 1. […] From FIG. 1, it is evident that the combination of the present invention is synergistic.
LN-18 cells (ML) were seeded in 96 well plate (5000 cells/100 ul/well) in complete medium and cultured for 24 hr. […] Absorbance was recorded at 490 nm (test filter) and 570 nm (reference filter). The % cell viability with treatment was calculated with readings in untreated cells considered as 100%. […]

[2] = system: prostate apoptosis response (Par)-4; assay: Western blotting of intracellular and secretory Par-4 in LN-18 cells; conditions: TAM 10 μg/ml, VPA 2 mM, alone or combined, 48 hr
Procedure: FIG. 4 depicts the effect of combination of tamoxifen (10 μg/ml) and valproic acid (2 mM) on the levels of secretory Par-4 and expression of GRP78 in […] cells wherein the control (C) represents untreated cells, V represents for valproic acid, T represents for tamoxifen and V+T represents combination of tamoxifen and valproic acid. The LN-18 cells were treated with tamoxifen or valproic acid alone or in combination for 48 hrs.
LN-18 cells were seeded in 6 well plate (0.3 million cells/well) and treated with TAM (10 μg/ml) and VPA (2 mM) either individually or in combination for 48 hr. Cell lysates were assessed for expression of intracellular prostate apoptosis response (Par)-4 and secretory Par-4 was measured in supernatants. Western blotting was done using 10% gels and the proteins were identified using specific antibodies followed by probing with luminol-based Enhanced Chemiluminescent (ECL) western blotting substrate. The results are presented at FIG. 4.

LN-229 cells = assay: MTT assay, cell viability in LN-229 cells (monolayer or multicellular spheroids); conditions: LN-229 MCS; TAM alone; 24 hr
Procedure: as §1
MTT assay was employed for assessing the combined action of tamoxifen (TAM) and VPA. LN-18 cells and LN-229 were seeded in 96 well plate (5000 cells/100 ul/well) in complete medium and cultured for 24 hr in two culture models-monolayer and 3D culture. Cells were treated with tamoxifen (TAM) at 3 concentrations-5 μg/ml, 10 μg/ml and 15 μg/ml either individually or in combination with Valproic Acid (VPA) (2 mM) for 24 hr. MTT was added and after 4 hr the crystals were solubilized using DMSO. Absorbance was recorded at 490 nm (test filter) and 570 nm (reference filter). The % cell viability in treated cells was calculated considering the readings in untreated cells as 100%. The results are presented at FIG. 1. […]

Structure (SMILES)	cellular Par-4 expression (western blot) [1]	effect on % cell viability (MTT) (LN-18 cells; LN-18 MCS, TAM alone)	effect on % cell viability (MTT) (LN-18 cells; LN-18 cells, TAM 15 ug/ml alone)	effect on % cell viability (MTT) (LN-18 cells; monolayer, TAM 5, 10 and 15 μg/ml alone)	cellular Par-4 level (western blot) ([2]; LN-18 cell lysates)	secretory Par-4 level (western blot) ([2]; LN-18 supernatants)	effect on % cell viability (MTT) (LN-229 cells)
CCCC(CCC)C(=O)O [VPA, Valproic acid]	induced	–	–	–	–	–	–
CC/C(=C(\c1ccccc1)c1ccc(OCCN(C)C)cc1)c1ccccc1 [TAM, (Z)-2[p[(1,2-diphenyl-1-butenyl)phenoxyl]-N,N-dimethylamine citrate]	–	resistant	toxic	dose dependent	enhanced	enhanced	resistant
